From US9908890B2, “Selective inhibitors of constitutive androstane receptor” (ST. JUDE CHILDREN'S RESEARCH HOSPITAL, priority 2014, dated 2018) come the findings set out here.

Structures are written as SMILES.

Data set [1] concerns the target T1, hCAR1 (Homo sapiens, UniProt Q14994).
T1 construct: expressed in transfected cells; host or cells: HepG2 (transient transfection)
T1 sequence (Q14994 1-348 isoform Q14994-2): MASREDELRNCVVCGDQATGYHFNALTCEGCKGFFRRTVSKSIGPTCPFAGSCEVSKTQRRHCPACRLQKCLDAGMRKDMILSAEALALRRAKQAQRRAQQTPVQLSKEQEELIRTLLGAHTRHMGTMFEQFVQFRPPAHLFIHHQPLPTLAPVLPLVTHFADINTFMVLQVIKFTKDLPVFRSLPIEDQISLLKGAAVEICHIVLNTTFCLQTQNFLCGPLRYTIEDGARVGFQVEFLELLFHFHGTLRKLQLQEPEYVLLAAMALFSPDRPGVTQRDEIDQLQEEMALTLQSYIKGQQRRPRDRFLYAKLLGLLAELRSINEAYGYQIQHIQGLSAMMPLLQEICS
In words: Cell-based inverse agonist assay (CYP2B6-luciferase reporter in HepG2 cells transfected with hCAR1). Conditions: 24 h treatment; read-out: IC50, inhibition of CAR-mediated CYP2B6-luciferase activity. As for the experimental part: HepG2 cells grown in flasks were transfected with Flag-hCAR1 and CYP2B6-luciferase reporter at a 1:3 ratio with Fugene HD (Promega) and incubated for 24 h. Cells were trypsinized and plated in 384-well plates (CulturPlate-384, PerkinElmer) at 5000 cells/well for the primary or secondary screening assays. Cells were treated with chemicals transferred by using a pintool 24 h prior to measuring reporter luciferase activity with SteadyLite firefly luciferase reagent and an EnVision plate reader (PerkinElmer). […] PXR activity was measured in HepG2 cells stably transfected with hPXR and CYP3A4-luciferase reporter (previously described as PXR Clonel cells, see Li, G., et al. (2012) Tox. Appl. Pharm. 258, 268-274; and Lin, W., et al. (2008) J. Biol. Chem. 283, 30650-30657). […] The luminescence signal was detected by using an Envision plate reader (PerkinElmer) and used to calculate the percentage of PXR activation. […] A flowchart of our screening strategy is illustrated in FIG. 1A. HepG2 cells were transiently transfected with pcDNA-hCAR1 and CYP2B6-luciferase plasmids and treated with varying concentrations of the test compounds in 384-well plates for 24 h, and CAR-mediated luciferase activity was measured. Twenty-five hits, defined as those displaying dose-responsive inhibitory effect on the constitutively active hCAR1, were selected and tested in various secondary screening assays. CINPA1 (FIG. 1B) was selected based on its potent inhibitory effect on hCAR1 and lack of detectable agonistic activity against PXR.
Background: Reporter assays use an easily measured gene product as a stand-in for the process of interest.

The target in another data set is T2, hPXR (Homo sapiens, UniProt O75469).
T2 construct: expressed in transfected cells
T2 sequence (O75469 1-434): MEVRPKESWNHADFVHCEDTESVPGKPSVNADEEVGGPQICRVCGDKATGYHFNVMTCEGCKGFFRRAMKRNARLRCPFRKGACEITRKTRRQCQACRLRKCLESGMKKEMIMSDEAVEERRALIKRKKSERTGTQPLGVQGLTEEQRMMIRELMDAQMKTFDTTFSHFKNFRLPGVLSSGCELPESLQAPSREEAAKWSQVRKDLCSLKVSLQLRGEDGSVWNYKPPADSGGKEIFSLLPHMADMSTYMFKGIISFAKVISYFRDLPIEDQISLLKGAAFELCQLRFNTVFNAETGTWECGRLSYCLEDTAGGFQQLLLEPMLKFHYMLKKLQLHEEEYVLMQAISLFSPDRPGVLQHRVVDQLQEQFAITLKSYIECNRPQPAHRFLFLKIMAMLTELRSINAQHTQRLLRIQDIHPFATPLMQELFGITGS
In words: PXR luciferase assay (HepG2-PXR Clone 1, CYP3A4-luciferase reporter). Type of data set: cell-based. The method, then:
Luciferase activity was measured 24 h after treatment by using SteadyLite™ reagent. […] GraphPad Prism was used to fit the data into a dose-response equation to derive IC50 values. […] The percentage of PXR activation was calculated by setting that of DMSO-treated cells (negative control) to 0%, and that of 5 μM rifampicin-treated cells (positive control) to 100%. HepG2 cells stably expressing hPXR and CYP3A4-luciferase reporter (PXR Clone 1) were treated with indicated compounds for 24 h. Luciferase activity was measured 24 h after treatment by using SteadyLite reagent. The percentage of PXR activation was calculated by setting that of DMSO-treated cells (negative control) to 0%, and that of 5 μM rifampicin-treated cells (positive control) to 100%.
Briefly, HepG2 cells were transiently transfected with plasmids expressing hCAR1, CYP3A4-luc reporter and control plasmid pTK-RL. […] Dual luciferase activity was measured 24 h after treatment using Dual-Glo® luciferase reagent. Renilla luciferase was used to normalize firefly luciferase values and % Luciferase activity was calculated by setting DMSO to 100%. p<0.001, when comparing DMSO to all treatments except 5 μM rifampicin. […] Briefly, HepG2-PXR Clone 1 cells were treated with CINPA1 in a dose-responsive format (40 μM to 2 nM, 1-to-2 dilutions for 10 concentrations) in the presence or absence of 5 μM rifampicin (Rif) for 24 h before luciferase assay using SteadyLite™. % PXR activity was calculated by setting DMSO (negative. control) treated cells to 0% and 5 μM rifampicin (positive. control) treated cells to 100%. GraphPad Prism was used to fit the data into a dose-response stimulation equation to derive IC50 values. […] Briefly, U2OS cells were transiently transfected with plasmids expressing hCAR1, CYP2B6-luc reporter and control plasmid pTK-RL. […] Dual luciferase activity was measured 24 h after treatment. Renilla luciferase was used to normalize firefly luciferase values and % Luciferase activity was calculated by setting DMSO to 100%. *, p<0.0001 comparing CITCO+CINPA1 to CITCO treated cells. […]

For data set [2], the target named is T1, hCAR1. The experiment in a line: CAR-mediated CYP3A4-luciferase assay (HepG2 cells transfected with hCAR1). Type of data set: cell-based. Conditions: 1 μM or 5 μM CINPA1, 24 h. As for the experimental part:
Briefly, HepG2 cells were transiently transfected with plasmids expressing hCAR1, CYP3A4-luc reporter and control plasmid pTK-RL. […] Dual luciferase activity was measured 24 h after treatment using Dual-Glo® luciferase reagent. Renilla luciferase was used to normalize firefly luciferase values and % Luciferase activity was calculated by setting DMSO to 100%. p<0.001, when comparing DMSO to all treatments except 5 μM rifampicin. […] Briefly, HepG2-PXR Clone 1 cells were treated with CINPA1 in a dose-responsive format (40 μM to 2 nM, 1-to-2 dilutions for 10 concentrations) in the presence or absence of 5 μM rifampicin (Rif) for 24 h before luciferase assay using SteadyLite™. % PXR activity was calculated by setting DMSO (negative. control) treated cells to 0% and 5 μM rifampicin (positive. control) treated cells to 100%. GraphPad Prism was used to fit the data into a dose-response stimulation equation to derive IC50 values. […] Briefly, U2OS cells were transiently transfected with plasmids expressing hCAR1, CYP2B6-luc reporter and control plasmid pTK-RL. […] Dual luciferase activity was measured 24 h after treatment. Renilla luciferase was used to normalize firefly luciferase values and % Luciferase activity was calculated by setting DMSO to 100%. *, p<0.0001 comparing CITCO+CINPA1 to CITCO treated cells.

For `CCOC(=O)Nc1ccc2c(c1)N(C(=O)CN(CC)CC)c1ccccc1CC2` [CINPA1], the IC50 came to 72 nM on hCAR1 [1] and 6.6 µM at hPXR (in the presence of 5 μM rifampicin, read-out: IC50, antagonist of PXR). For the same compound, on hPXR (18 μM CINPA1 with 5 μM rifampicin, 24 h), the “inhibition of PXR-mediated gene expression” value was “weakly inhibited PXR-mediated gene expression”. At hPXR (40 μM), the “agonistic effect on PXR-regulated gene expression” value is given as “did not exhibit any agonistic effect”. The “CAR-mediated CYP3A4-luciferase activity” value on hCAR1 [2] is reported as “also seen in CAR-mediated CYP3A4-luciferase activity”.

As usually defined, the IC50 is the midpoint of a concentration-inhibition curve.
